PMC8963254, “Effects of Lysine N-ζ-Methylation in Ultrashort Tetrabasic Lipopeptides (UTBLPs) on the Potentiation of Rifampicin, Novobiocin, and Niclosamide in Gram-Negative Bacteria” (Antibiotics, 2022)
In brackets after ≈: the same amount, converted by molar mass. Several values for one entry are separate records, joined by “and”; a condition that tells them apart may be missing. Equal entries are not always repeated. Where two headings read alike, the source gives them in different places.

Assays:
E. coli 94393 [1] = assay: microbe, parasite or virus in culture; type: cell-based, Escherichia coli; conditions: Escherichia coli, 18 h; E. coli 94393 (mcr-1 +); read-out: MICs of various antibiotics
Protocol: (§1) The in vitro antibacterial activity of the UTBLPs was assessed against wild-type and clinically isolated bacterial strains. To obtain the MIC of the compounds, the microbroth dilution susceptibility assay was performed according to the Clinical and Laboratory Standards Institute (CLSI, Wayne, PA, USA) guidelines and as previously described. Briefly, the compounds at varying concentrations were incubated with bacterial inoculum (5 × 10^5 CFU/mL final concentration) at 37 °C for 18 h. Growth in the form of turbidity was confirmed using an EMax Plus microplate reader (Molecular Devices, San Jose, CA, USA) at 590 nm.

E. coli 94474 [2] = assay: microbe, parasite or virus in culture; type: cell-based, Escherichia coli; conditions: Escherichia coli, 18 h; E. coli 94474 (mcr-1 +); read-out: MICs of various antibiotics
Protocol: as §1

K. pneumoniae 113250 [3] = assay: microbe, parasite or virus in culture; type: cell-based, Klebsiella pneumoniae; conditions: Klebsiella pneumoniae, 18 h; K. pneumoniae 113250; read-out: MICs of various antibiotics
Protocol: as §1

[4] = test system: P. aeruginosa PA259-96196; assay: microbe, parasite or virus in culture; type: cell-based, Pseudomonas aeruginosa; conditions: Pseudomonas aeruginosa, PA25996196, 18 h; P. aeruginosa 259-96196; read-out: MICs of various antibiotics
Protocol: as §1

[5] = test system: P. aeruginosa PA262-101856; assay: microbe, parasite or virus in culture; type: cell-based, Pseudomonas aeruginosa; conditions: Pseudomonas aeruginosa, PA262101856, 18 h; P. aeruginosa 262-101856; read-out: MICs of various antibiotics
Protocol: as §1

A. baumannii AB027 [6] = assay: microbe, parasite or virus in culture; type: cell-based, Acinetobacter baumannii; conditions: Acinetobacter baumannii, 18 h; A. baumannii AB027; read-out: MICs of various antibiotics
Protocol: as §1

A. baumannii AB92247 = assay: microbe, parasite or virus in culture; type: cell-based, Acinetobacter baumannii; conditions: Acinetobacter baumannii, AB92247, 18 h; A. baumannii 92247; read-out: MICs of various antibiotics
Protocol: as §1

E. cloacae 118564 [7] = assay: microbe, parasite or virus in culture; type: cell-based, Enterobacter cloacae; conditions: Enterobacter cloacae, 18 h; E. cloacae 118564; read-out: MICs of various antibiotics
Protocol: as §1

E. coli ATCC 25922 = type: cell-based, Escherichia coli
Protocol: (§2) The synergy of the UTBLPs with various antibiotics was assessed using checkerboard assay as previously described. Briefly, the combination of antibiotic and OMP at varying concentrations were incubated with bacterial inoculum (5 × 10^5 CFU/mL final concentration) at 37 °C for 18 h. Growth in the form of turbidity was confirmed using an EMax Plus microplate reader (Molecular Devices, Union City, CA, USA) at 590 nm. Fractional inhibitory concentration index (FICI) was used to evaluate the interaction between the antibiotic and the OMP. FICI is the sum of the FIC of the antibiotic and the FIC of the OMP. The FIC value is calculated by dividing the MIC of the agents in combination by the MIC of the agent alone. FICI ≤ 0.5 is synergistic, 0.5 < x ≤ 4 is additive, and >4 is antagonistic.

P. aeruginosa PAO1 = type: cell-based, Pseudomonas aeruginosa
Protocol: as §2

A. baumannii ATCC 17978 = type: cell-based, Acinetobacter baumannii
Protocol: as §2

E. coli 94393 [8] = type: cell-based, Escherichia coli
Protocol: as §2

E. coli 94474 [9] = type: cell-based, Escherichia coli
Protocol: as §2

[10] = test system: P. aeruginosa PA259-96196; type: cell-based, Pseudomonas aeruginosa
Protocol: as §2

[11] = test system: P. aeruginosa PA262-101856; type: cell-based, Pseudomonas aeruginosa
Protocol: as §2

E. cloacae 118564 [12] = type: cell-based, Enterobacter cloacae
Protocol: as §2

A. baumannii 92247 = type: cell-based, Acinetobacter baumannii
Protocol: as §2

A. baumannii AB027 [13] = type: cell-based, Acinetobacter baumannii
Protocol: as §2

K. pneumoniae 113250 [14] = type: cell-based, Klebsiella pneumoniae; conditions: rifampicin alone
Protocol: as §2

Structure (SMILES)	MIC (E. coli 94393 [1])	MIC (E. coli 94474 [2])	MIC (K. pneumoniae 113250 [3])	MIC [4]	MIC [5]	MIC (A. baumannii AB027 [6])	further results
C[C@@H](O)[C@H]1C(=O)N2C(C(=O)O)=C(SCCN=CN)C[C@H]12 [IMI, imipenem]	0.25 µg/mL (≈ 0.835 µM)	0.25 µg/mL (≈ 0.835 µM)	0.25 µg/mL (≈ 0.835 µM)	32 µg/mL (≈ 107 µM)	32 µg/mL (≈ 107 µM)	32 µg/mL (≈ 107 µM)	
C[C@H]1COc2c(N3CCN(C)CC3)c(F)cc3c(=O)c(C(=O)O)cn1c23 [LEV, levofloxacin]	1 µg/mL (≈ 2.77 µM)	32 µg/mL (≈ 88.6 µM)	0.125 µg/mL (≈ 0.346 µM)	256 µg/mL (≈ 708 µM)	64 µg/mL (≈ 177 µM)	8 µg/mL (≈ 22.1 µM)	
CN(C)c1ccc(O)c2c1C[C@H]1C[C@H]3[C@H](N(C)C)C(O)=C(C(N)=O)C(=O)[C@@]3(O)C(O)=C1C2=O [MIN, minocycline]	2 µg/mL (≈ 4.37 µM)	64 µg/mL (≈ 140 µM)	2 µg/mL (≈ 4.37 µM)	32 µg/mL (≈ 69.9 µM)	64 µg/mL (≈ 140 µM)	0.25 µg/mL (≈ 0.546 µM)	MIC (A. baumannii AB92247): 0.125 µg/mL (≈ 0.273 µM)
COc1c(N2C[C@@H]3CCCN[C@@H]3C2)c(F)cc2c(=O)c(C(=O)O)cn(C3CC3)c12 [MOX, moxifloxacin]	1 µg/mL (≈ 2.49 µM)	16 µg/mL (≈ 39.9 µM)	≤ 0.06 µg/mL	> 16 µg/mL	> 16 µg/mL	8 µg/mL (≈ 19.9 µM)	MIC (E. cloacae 118564 [7]): 0.12 µg/mL (≈ 0.299 µM)
O=C(Nc1ccc([N+](=O)[O-])cc1Cl)c1cc(Cl)ccc1O [Niclosamide, niclosamide]							MICantibiotic (E. coli ATCC 25922; niclosamide alone): > 128 µg/mL and > 256 µg/mL; MICantibiotic (P. aeruginosa PAO1; niclosamide alone): 1024 µg/mL; MICantibiotic (A. baumannii ATCC 17978; niclosamide alone): 1024 µg/mL and > 1024 µg/mL and 512 µg/mL
CO[C@@H]1[C@@H](OC(N)=O)[C@@H](O)[C@H](Oc2ccc3c(O)c(NC(=O)c4ccc(O)c(CC=C(C)C)c4)c(=O)oc3c2C)OC1(C)C [Novobiocin, novobiocin]							MICantibiotic (E. coli 94393 [8]; novobiocin alone): 128 µg/mL and 64 µg/mL; MICantibiotic (E. coli ATCC 25922; novobiocin alone): 32 µg/mL and 64 µg/mL; MICantibiotic (E. coli 94474 [9]; novobiocin alone): 256 µg/mL and 128 µg/mL; MICantibiotic ([10]; novobiocin alone): 2048 µg/mL and 1024 µg/mL; MICantibiotic (P. aeruginosa PAO1; novobiocin alone): 512 µg/mL and 1024 µg/mL; MICantibiotic ([11]; novobiocin alone): 1024 µg/mL and 2048 µg/mL and > 1024 µg/mL; MICantibiotic (E. cloacae 118564 [12]; novobiocin alone): 256 µg/mL; MICantibiotic (A. baumannii 92247; novobiocin alone): 2 µg/mL and 4 µg/mL; MICantibiotic (A. baumannii AB027 [13]; novobiocin alone): 8 µg/mL and 16 µg/mL
CN(C)c1cc(CNCC(C)(C)C)c(O)c2c1C[C@H]1C[C@H]3[C@H](N(C)C)C(O)=C(C(N)=O)C(=O)[C@@]3(O)C(O)=C1C2=O [OMC, omadacycline]	4 µg/mL (≈ 7.19 µM)	16 µg/mL (≈ 28.7 µM)	2 µg/mL (≈ 3.59 µM)	64 µg/mL (≈ 115 µM)	64 µg/mL (≈ 115 µM)	1 µg/mL (≈ 1.8 µM)	
CO[C@H]1/C=C/O[C@@]2(C)Oc3c(C)c(O)c4c(O)c(c(/C=N/N5CCN(C)CC5)c(O)c4c3C2=O)NC(=O)/C(C)=C\C=C\[C@H](C)[C@H](O)[C@@H](C)[C@@H](O)[C@@H](C)[C@H](OC(C)=O)[C@@H]1C [Rifampicin, rifampicin]							MICantibiotic (E. coli 94393 [8]; rifampicin alone): 4 µg/mL; MICantibiotic (E. coli ATCC 25922; rifampicin alone): 4 µg/mL and 2 µg/mL; MICantibiotic (E. coli 94474 [9]; rifampicin alone): 4 µg/mL and 8 µg/mL; MICantibiotic ([10]; rifampicin alone): 16 µg/mL; MICantibiotic (P. aeruginosa PAO1; rifampicin alone): 16 µg/mL and 8 µg/mL; MICantibiotic ([11]; rifampicin alone): 512 µg/mL and 1024 µg/mL; MICantibiotic (E. cloacae 118564 [12]; rifampicin alone): 8 µg/mL; MICantibiotic (A. baumannii ATCC 17978; rifampicin alone): 1 µg/mL and 2 µg/mL; MICantibiotic (A. baumannii 92247; rifampicin alone): 1 µg/mL and 2 µg/mL; MICantibiotic (A. baumannii AB027 [13]; rifampicin alone): 1 µg/mL; MICantibiotic (K. pneumoniae 113250 [14]): 16 µg/mL and 8 µg/mL
CN(C)c1cc(NC(=O)CNC(C)(C)C)c(O)c2c1C[C@H]1C[C@H]3[C@H](N(C)C)C(O)=C(C(N)=O)C(=O)[C@@]3(O)C(O)=C1C2=O [TGC, tigecycline]	0.25 µg/mL (≈ 0.427 µM)	1 µg/mL (≈ 1.71 µM)		32 µg/mL (≈ 54.6 µM)	32 µg/mL (≈ 54.6 µM)	4 µg/mL (≈ 6.83 µM)	MIC (A. baumannii AB92247): 0.25 µg/mL (≈ 0.427 µM)
NC[C@H]1O[C@H](O[C@H]2[C@H](O)[C@@H](O[C@H]3O[C@H](CO)[C@@H](O)[C@H](N)[C@H]3O)[C@H](N)C[C@@H]2N)[C@H](N)C[C@@H]1O [TOB, tobramycin]	≤ 0.5 µg/mL	32 µg/mL (≈ 68.4 µM)	≤ 0.5 µg/mL	256 µg/mL (≈ 548 µM)	1020 µg/mL (≈ 2190 µM)		MIC (E. cloacae 118564 [7]): 1 µg/mL (≈ 2.14 µM)
